How the values were obtained:
Type in all cases: in vivo
Monochoria vaginalis = assay: Test Example 2: herbicidal activity, application during weed generation in submerged conditions (symbol C); settings: Table 23; application herbicide amount 320 g/ha; grade 0-5 by criteria of Test Example 1
How it was run: (§1)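 Each pot contained alluvial soil under 4 cm of water with seeds of all three weeds sown together. Following growth at 25° C. to 30° C. to the one- to two-leaf stage, the floodwater received diluted emulsion at a predetermined amount; visual assessment followed at 3 weeks.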

Alopecurus myosuroides [1] = assay: Test Example 5: herbicidal effect by foliage application, plastic box (symbol J); settings: 320 g/ha, 3 weeks after application
How it was run: (§2)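 Seeds were sown in sterilized diluvial soil, covered with about 1.5 cm of soil and grown 14 days in a greenhouse at 25° C. to 30° C. An emulsifiable formulation diluted in water to a set rate was sprayed over foliage, and injury was scored 3 weeks later.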

wheat [2] = assay: Test Example 5: effect on crop by foliage application, plastic box (symbol e); settings: 320 g/ha, 3 weeks after application
How it was run: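 A greenhouse held between 25° C. and 30° C. was used to grow plants sown spot-wise, beneath ~1.5 cm of soil, in boxes of sterilized diluvial soil.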

[3] = system: Echinochloa oryzacola Vasing.; assay: Test Example 1: herbicidal activity, application before weed generation in submerged conditions (symbol A); settings: application herbicide amount 320 g/ha
How it was run: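 Paddy pre-emergence test. Formulated emulsion, water-diluted to a predetermined rate, is applied to floodwater on sowing day; rice transplanted at 2.5 leaves. Effect read at 3 weeks on a 0–5 herbicidal-ratio scale.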

Amaranthus retroflexus = assay: Test Example 5: herbicidal effect by foliage application, plastic box (symbol N); settings: 320 g/ha, 3 weeks after application
How it was run: as §2

soybean = assay: Test Example 4: effect on crop by soil treatment (symbol d); settings: application herbicide amount 320 g/ha
How it was run: (§3)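 Crop seeds, among them rice, wheat, beet and rapeseed, were sown in sterilized diluvial soil and covered with about 1.5 cm of soil. Boxes were kept in a greenhouse at 25° C. to 30° C. for plant growth.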

beet = assay: Test Example 4: effect on crop by soil treatment (symbol f); settings: application herbicide amount 320 g/ha
How it was run: as §3

Alopecurus myosuroides [4] = assay: Test Example 4: herbicidal effect by soil treatment (symbol J); settings: application herbicide amount 320 g/ha
How it was run: (§4)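 Seeds were sown in sterilized diluvial soil, covered with about 1.5 cm of soil, and the soil surface was sprayed with a water-diluted emulsion of the compound at a predetermined rate. Plants grew in a greenhouse at 25° C. to 30° C.; effects were scored visually 3 weeks after application.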

[5] = system: Echinochloa oryzacola Vasing.; assay: Test Example 2: herbicidal activity, application during weed generation in submerged conditions (symbol A); settings: Table 23; application herbicide amount 320 g/ha; grade 0-5 by criteria of Test Example 1
How it was run: as §1

wheat [6] = assay: Test Example 4: effect on crop by soil treatment (symbol e); settings: application herbicide amount 320 g/ha
How it was run: as §3

Cyperus difformis = assay: Test Example 3: herbicidal effect by foliage application, Wagner pot (symbol E); settings: application herbicide amount 320 g/ha
How it was run: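 Seeds sown in alluvial soil kept under 0.1–0.5 cm water, greenhouse 25–30 °C; 14 d growth. Leaves treated by small sprayer with water-diluted emulsion at a predetermined rate. Effect graded by set scale, 3 weeks.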

[7] = system: Echinochloa crus-galli var. crus-galli; assay: Test Example 4: herbicidal effect by soil treatment (symbol H); settings: application herbicide amount 320 g/ha
How it was run: as §4

SMILES: CON=C(C)CC1CC(O)=C(c2c(C)cc(-c3ccc(Cl)cc3F)cc2C)C1=O (stereo not drawn) [6-084]
- Herbicidal effect grade, C: Monochoria vaginalis (Monochoria vaginalis): 0 (Herbicidal ratio of 5% or lower (almost no effect))
- J: Alopecurus myosuroides, herbicidal effect (criteria of Test Example 1) (Alopecurus myosuroides [1]): 5 (Herbicidal ratio of 90% or more (almost completely withered))
- e: wheat, effect on crop (criteria of Test Example 1) (wheat [2]): 4 (Herbicidal ratio of 70% or higher and lower than 90%)
- Herbicidal effect grade, A: Echinochloa oryzacola Vasing. [3]: 5 (Herbicidal ratio of 90% or more (almost completely withered))
- N: Amaranthus retroflexus, herbicidal effect (criteria of Test Example 1) (Amaranthus retroflexus): 3 (Herbicidal ratio of 40% or higher and lower than 70%)
- d: soybean, effect on crop grade (soybean): 5 (Herbicidal ratio of 90% or more (almost completely withered))
- f: beet, effect on crop grade (beet): 0 (Herbicidal ratio of 5% or lower (almost no effect))
- J: Alopecurus myosuroides, herbicidal effect grade (Alopecurus myosuroides [4]): 5 (Herbicidal ratio of 90% or more (almost completely withered))
- Herbicidal effect grade, A: Echinochloa oryzacola Vasing. [5]: 4 (Herbicidal ratio of 70% or higher and lower than 90%)
- e: wheat, effect on crop grade (wheat [6]): 2 (Herbicidal ratio of 20% or higher and lower than 40%)
- herbicidal effect on E, grade 0-5 (Cyperus difformis): 5 (Herbicidal ratio of 90% or more (almost completely withered))
- H: Echinochloa crus-galli var. crus-galli, herbicidal effect grade [7]: 5 (Herbicidal ratio of 90% or more (almost completely withered))

SMILES: CON=C(C)CC1CC(O)=C(c2c(C)cc(-c3ccc(F)c(Cl)c3)cc2C)C1=O (stereo not drawn) [6-085]
- Herbicidal effect grade, C: Monochoria vaginalis (Monochoria vaginalis): 1 (Herbicidal ratio of 5% or higher and lower than 20%)
- J: Alopecurus myosuroides, herbicidal effect (criteria of Test Example 1) (Alopecurus myosuroides [1]): 5 (Herbicidal ratio of 90% or more (almost completely withered))
- e: wheat, effect on crop (criteria of Test Example 1) (wheat [2]): 5 (Herbicidal ratio of 90% or more (almost completely withered))
- Herbicidal effect grade, A: Echinochloa oryzacola Vasing. [3]: 5 (Herbicidal ratio of 90% or more (almost completely withered))
- N: Amaranthus retroflexus, herbicidal effect (criteria of Test Example 1) (Amaranthus retroflexus): 3 (Herbicidal ratio of 40% or higher and lower than 70%)
- Effect on crop grade, d: soybean (soybean): 5 (Herbicidal ratio of 90% or more (almost completely withered))
- Effect on crop grade, f: beet (beet): 3 (Herbicidal ratio of 40% or higher and lower than 70%)
- Herbicidal effect grade, J: Alopecurus myosuroides (Alopecurus myosuroides [4]): 5 (Herbicidal ratio of 90% or more (almost completely withered))
- Herbicidal effect grade, A: Echinochloa oryzacola Vasing. [5]: 5 (Herbicidal ratio of 90% or more (almost completely withered))
- Effect on crop grade, e: wheat (wheat [6]): 3 (Herbicidal ratio of 40% or higher and lower than 70%)
- herbicidal effect on E, grade 0-5 (Cyperus difformis): 5 (Herbicidal ratio of 90% or more (almost completely withered))
- Herbicidal effect grade, H: Echinochloa crus-galli var. crus-galli [7]: 5 (Herbicidal ratio of 90% or more (almost completely withered))

SMILES: CON=C(C)CC1CC(OC(=O)C(C)CSC)=C(c2c(C)cc(-c3ccc(Cl)cc3)cc2C)C1=O (stereo not drawn) [6-086]
- Herbicidal effect grade, C: Monochoria vaginalis (Monochoria vaginalis): 3 (Herbicidal ratio of 40% or higher and lower than 70%)
- J: Alopecurus myosuroides, herbicidal effect (criteria of Test Example 1) (Alopecurus myosuroides [1]): 5 (Herbicidal ratio of 90% or more (almost completely withered))
- e: wheat, effect on crop (criteria of Test Example 1) (wheat [2]): 5 (Herbicidal ratio of 90% or more (almost completely withered))
- Herbicidal effect grade, A: Echinochloa oryzacola Vasing. [3]: 5 (Herbicidal ratio of 90% or more (almost completely withered))
- N: Amaranthus retroflexus, herbicidal effect (criteria of Test Example 1) (Amaranthus retroflexus): 0 (Herbicidal ratio of 5% or lower (almost no effect))
- Effect on crop grade, d: soybean (soybean): 5 (Herbicidal ratio of 90% or more (almost completely withered))
- Effect on crop grade, f: beet (beet): 1 (Herbicidal ratio of 5% or higher and lower than 20%)
- Herbicidal effect grade, J: Alopecurus myosuroides (Alopecurus myosuroides [4]): 5 (Herbicidal ratio of 90% or more (almost completely withered))
- Herbicidal effect grade, A: Echinochloa oryzacola Vasing. [5]: 4 (Herbicidal ratio of 70% or higher and lower than 90%)
- Effect on crop grade, e: wheat (wheat [6]): 2 (Herbicidal ratio of 20% or higher and lower than 40%)
- herbicidal effect on E, grade 0-5 (Cyperus difformis): 5 (Herbicidal ratio of 90% or more (almost completely withered))
- Herbicidal effect grade, H: Echinochloa crus-galli var. crus-galli [7]: 5 (Herbicidal ratio of 90% or more (almost completely withered))

SMILES: CON=C(C)CC1CC(O)=C(c2c(C)cc(-c3cc(Cl)cc(Cl)c3)cc2C)C1=O (stereo not drawn) [6-087]
- Herbicidal effect grade, C: Monochoria vaginalis (Monochoria vaginalis): 0 (Herbicidal ratio of 5% or lower (almost no effect))
- J: Alopecurus myosuroides, herbicidal effect (criteria of Test Example 1) (Alopecurus myosuroides [1]): 4 (Herbicidal ratio of 70% or higher and lower than 90%)
- e: wheat, effect on crop (criteria of Test Example 1) (wheat [2]): 1 (Herbicidal ratio of 5% or higher and lower than 20%)
- Herbicidal effect grade, A: Echinochloa oryzacola Vasing. [3]: 5 (Herbicidal ratio of 90% or more (almost completely withered))
- N: Amaranthus retroflexus, herbicidal effect (criteria of Test Example 1) (Amaranthus retroflexus): 0 (Herbicidal ratio of 5% or lower (almost no effect))
- Effect on crop grade, d: soybean (soybean): 3 (Herbicidal ratio of 40% or higher and lower than 70%)
- Effect on crop grade, f: beet (beet): 0 (Herbicidal ratio of 5% or lower (almost no effect))
- Herbicidal effect grade, J: Alopecurus myosuroides (Alopecurus myosuroides [4]): 4 (Herbicidal ratio of 70% or higher and lower than 90%)
- Herbicidal effect grade, A: Echinochloa oryzacola Vasing. [5]: 2 (Herbicidal ratio of 20% or higher and lower than 40%)
- Effect on crop grade, e: wheat (wheat [6]): 0 (Herbicidal ratio of 5% or lower (almost no effect))
- herbicidal effect on E, grade 0-5 (Cyperus difformis): 0 (Herbicidal ratio of 5% or lower (almost no effect))
- Herbicidal effect grade, H: Echinochloa crus-galli var. crus-galli [7]: 5 (Herbicidal ratio of 90% or more (almost completely withered))

SMILES: CON=C(C)CC1CC(O)=C(c2c(C)cc(-c3ccc(Cl)cc3Cl)cc2C)C1=O (stereo not drawn) [6-088]
- Herbicidal effect grade, C: Monochoria vaginalis (Monochoria vaginalis): 0 (Herbicidal ratio of 5% or lower (almost no effect))
- J: Alopecurus myosuroides, herbicidal effect (criteria of Test Example 1) (Alopecurus myosuroides [1]): 5 (Herbicidal ratio of 90% or more (almost completely withered))
- e: wheat, effect on crop (criteria of Test Example 1) (wheat [2]): 4 (Herbicidal ratio of 70% or higher and lower than 90%)
- Herbicidal effect grade, A: Echinochloa oryzacola Vasing. [3]: 4 (Herbicidal ratio of 70% or higher and lower than 90%)
- N: Amaranthus retroflexus, herbicidal effect (criteria of Test Example 1) (Amaranthus retroflexus): 0 (Herbicidal ratio of 5% or lower (almost no effect))
- Effect on crop grade, d: soybean (soybean): 5 (Herbicidal ratio of 90% or more (almost completely withered))
- Effect on crop grade, f: beet (beet): 0 (Herbicidal ratio of 5% or lower (almost no effect))
- Herbicidal effect grade, J: Alopecurus myosuroides (Alopecurus myosuroides [4]): 5 (Herbicidal ratio of 90% or more (almost completely withered))
- Herbicidal effect grade, A: Echinochloa oryzacola Vasing. [5]: 4 (Herbicidal ratio of 70% or higher and lower than 90%)
- Effect on crop grade, e: wheat (wheat [6]): 0 (Herbicidal ratio of 5% or lower (almost no effect))
- herbicidal effect on E, grade 0-5 (Cyperus difformis): 5 (Herbicidal ratio of 90% or more (almost completely withered))
- Herbicidal effect grade, H: Echinochloa crus-galli var. crus-galli [7]: 5 (Herbicidal ratio of 90% or more (almost completely withered))

SMILES: CON=C(C)CC1CC(OC(=O)COc2ccccc2)=C(c2c(C)cc(C)cc2OC)C1=O (stereo not drawn) [6-091]
- Herbicidal effect grade, C: Monochoria vaginalis (Monochoria vaginalis): 3 (Herbicidal ratio of 40% or higher and lower than 70%)
- J: Alopecurus myosuroides, herbicidal effect (criteria of Test Example 1) (Alopecurus myosuroides [1]): 5 (Herbicidal ratio of 90% or more (almost completely withered))
- e: wheat, effect on crop (criteria of Test Example 1) (wheat [2]): 5 (Herbicidal ratio of 90% or more (almost completely withered))
- Herbicidal effect grade, A: Echinochloa oryzacola Vasing. [3]: 5 (Herbicidal ratio of 90% or more (almost completely withered))
- N: Amaranthus retroflexus, herbicidal effect (criteria of Test Example 1) (Amaranthus retroflexus): 2 (Herbicidal ratio of 20% or higher and lower than 40%)
- Effect on crop grade, d: soybean (soybean): 1 (Herbicidal ratio of 5% or higher and lower than 20%)
- Effect on crop grade, f: beet (beet): 1 (Herbicidal ratio of 5% or higher and lower than 20%)
- Herbicidal effect grade, J: Alopecurus myosuroides (Alopecurus myosuroides [4]): 5 (Herbicidal ratio of 90% or more (almost completely withered))
- Herbicidal effect grade, A: Echinochloa oryzacola Vasing. [5]: 5 (Herbicidal ratio of 90% or more (almost completely withered))
- Effect on crop grade, e: wheat (wheat [6]): 5 (Herbicidal ratio of 90% or more (almost completely withered))
- herbicidal effect on E, grade 0-5 (Cyperus difformis): 5 (Herbicidal ratio of 90% or more (almost completely withered))
- Herbicidal effect grade, H: Echinochloa crus-galli var. crus-galli [7]: 5 (Herbicidal ratio of 90% or more (almost completely withered))

SMILES: CON=C(C)CC1CC(OC(=O)COc2ccccc2)=C(c2c(C)cc(-c3ccc(Cl)cc3Cl)cc2C)C1=O (stereo not drawn) [6-092]
- Herbicidal effect grade, C: Monochoria vaginalis (Monochoria vaginalis): 0 (Herbicidal ratio of 5% or lower (almost no effect))
- J: Alopecurus myosuroides, herbicidal effect (criteria of Test Example 1) (Alopecurus myosuroides [1]): 5 (Herbicidal ratio of 90% or more (almost completely withered))
- e: wheat, effect on crop (criteria of Test Example 1) (wheat [2]): 0 (Herbicidal ratio of 5% or lower (almost no effect))
- Herbicidal effect grade, A: Echinochloa oryzacola Vasing. [3]: 3 (Herbicidal ratio of 40% or higher and lower than 70%)
- N: Amaranthus retroflexus, herbicidal effect (criteria of Test Example 1) (Amaranthus retroflexus): 0 (Herbicidal ratio of 5% or lower (almost no effect))
- Effect on crop grade, d: soybean (soybean): 0 (Herbicidal ratio of 5% or lower (almost no effect))
- Effect on crop grade, f: beet (beet): 0 (Herbicidal ratio of 5% or lower (almost no effect))
- Herbicidal effect grade, J: Alopecurus myosuroides (Alopecurus myosuroides [4]): 3 (Herbicidal ratio of 40% or higher and lower than 70%)
- Herbicidal effect grade, A: Echinochloa oryzacola Vasing. [5]: 1 (Herbicidal ratio of 5% or higher and lower than 20%)
- Effect on crop grade, e: wheat (wheat [6]): 0 (Herbicidal ratio of 5% or lower (almost no effect))
- herbicidal effect on E, grade 0-5 (Cyperus difformis): 4 (Herbicidal ratio of 70% or higher and lower than 90%)
- Herbicidal effect grade, H: Echinochloa crus-galli var. crus-galli [7]: 3 (Herbicidal ratio of 40% or higher and lower than 70%)

Reference: patent US11000033B2, “Ketone or oxime compound, and herbicide” (NISSAN CHEMICAL CORPORATION, priority 2014, dated 2021)
